Measured values as given in patent US20250230193A1, “CYCLIC COMPOUND HAVING SELECTIVE KRAS INHIBITORY EFFECT ON HRAS AND NRAS” (CHUGAI SEIYAKU KABUSHIKI KAISHA, priority 2022, published 2025).
Where a SMILES comes first, the peptide text is derived from it. Bridges are numbered along the chain shown (N, C = ends). [ ]: non-standard residue; d: D form. The star is where a group is joined. hPhe(3-Cl-4-CF3) = N[C@@H](CCc1ccc(C(F)(F)F)c(Cl)c1)C(=O)O; NPrPhe(4-CF3) = CCCN[C@@H](Cc1ccc(C(F)(F)F)cc1)C(=O)O; NEtPhe(4-Me) = CCN[C@@H](Cc1ccc(C)cc1)C(=O)O; NMeGly(cPent) = CN[C@H](C(=O)O)C1CCCC1; NMeD = CN[C@@H](CC(=O)O)C(=O)O; NMeL = CN[C@@H](CC(C)C)C(=O)O; Morpholide = C1CN(*)CCO1; Ac5c = NC1(C(=O)O)CCCC1; NcPrGly = O=C(O)CNC1CC1; NEtG = CCNCC(=O)O; Sar = CNCC(=O)O

Columns and labels:
[1] = molecular target: GDP-bound NRAS wild-type protein (Homo sapiens, UniProt P01111); experiment: Binding to NRAS by surface plasmon resonance (SPR), Single Cycle Kinetics; conditions: for NRAS/KRAS (ratio of KD value with respect to NRAS to KD value with respect to KRAS): GDP-bound NRAS wild-type vs GDP-bound KRAS wild-type
Sequence of GDP-bound NRAS wild-type protein (P01111 whole entry): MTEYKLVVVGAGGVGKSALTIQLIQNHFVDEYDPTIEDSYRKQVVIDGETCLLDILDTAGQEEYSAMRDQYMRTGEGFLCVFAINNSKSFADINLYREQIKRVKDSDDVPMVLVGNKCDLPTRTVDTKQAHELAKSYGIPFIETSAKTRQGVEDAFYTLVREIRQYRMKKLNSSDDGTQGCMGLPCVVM

[2] = molecular target: GDP-bound HRAS wild-type protein (Homo sapiens, UniProt P01112); experiment: Binding to HRAS by surface plasmon resonance (SPR), Single Cycle Kinetics; conditions: for HRAS/KRAS (ratio of KD value with respect to HRAS to KD value with respect to KRAS): GDP-bound HRAS wild-type vs GDP-bound KRAS wild-type
Sequence of GDP-bound HRAS wild-type protein (P01112 whole entry): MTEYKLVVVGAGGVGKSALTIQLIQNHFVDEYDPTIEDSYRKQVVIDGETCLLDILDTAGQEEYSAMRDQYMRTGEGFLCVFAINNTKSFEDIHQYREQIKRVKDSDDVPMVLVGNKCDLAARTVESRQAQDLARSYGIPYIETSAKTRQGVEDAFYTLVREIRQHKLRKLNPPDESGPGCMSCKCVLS

CCCN1C(=O)CN(C)C(=O)CN(C)C(=O)[C@H]([C@@H](C)CC)NC(=O)[C@H](CC(C)C)N(C)C(=O)C[C@@H](C(=O)N(C)C)N(C)C(=O)[C@H](C2CCCC2)N(C)C(=O)C2(CCCC2)NC(=O)[C@@H]2CCCN2C(=O)[C@H](CCc2ccc(C(F)(F)F)c(Cl)c2)NC(=O)CN(C)C(=O)[C@@H]1Cc1ccc(C(F)(F)F)cc1 [PP0169] ([NMeL]I[Sar][Sar][NPrPhe(4-CF3)][Sar][hPhe(3-Cl-4-CF3)]P[Ac5c][NMeGly(cPent)][NMeD]-NMe2; lactam N-11)
NRAS/KRAS (ratio of KD for GDP-bound NRAS wild-type to KD for KRAS) ([1]; SPR): B (a compound having 3 or more and less than 10 is denoted as B) | HRAS/KRAS (ratio of KD for GDP-bound HRAS wild-type to KD for KRAS) ([2]; SPR): B (a compound having 3 or more and less than 10 is denoted as B)

CCCN1C(=O)CN(C)C(=O)CN(C2CC2)C(=O)[C@H]([C@@H](C)CC)NC(=O)[C@H](CC(C)C)N(C)C(=O)C[C@@H](C(=O)N2CCOCC2)N(C)C(=O)[C@H](C2CCCC2)N(C)C(=O)C2(CCCC2)NC(=O)[C@@H]2CCCN2C(=O)[C@H](CCc2ccc(C(F)(F)F)c(Cl)c2)NC(=O)CN(C)C(=O)[C@@H]1Cc1ccc(C(F)(F)F)cc1 [PP0252] ([NMeL]I[NcPrGly][Sar][NPrPhe(4-CF3)][Sar][hPhe(3-Cl-4-CF3)]P[Ac5c][NMeGly(cPent)][NMeD]-Morpholide; lactam N-11)
NRAS/KRAS (ratio of KD for GDP-bound NRAS wild-type to KD for KRAS) ([1]; SPR): B (a compound having 3 or more and less than 10 is denoted as B) | HRAS/KRAS (ratio of KD for GDP-bound HRAS wild-type to KD for KRAS) ([2]; SPR): B (a compound having 3 or more and less than 10 is denoted as B)

CCO[C@@H]1C[C@H]2C(=O)NC3(CCC3)C(=O)N(C)[C@@H](C3CCCC3)C(=O)N(C)[C@H](C(=O)N(C)C)CC(=O)N(C)[C@@H](Cc3ccc(F)cc3)C(=O)N[C@@H]([C@@H](C)CC)C(=O)N(C)CC(=O)N(C)[C@H]3CCCCCN(C3=O)[C@@H](Cc3ccc(C(F)(F)F)cc3)C(=O)N(C)CC(=O)N[C@@H](CCc3cc(F)c(C(F)(F)F)c(F)c3)C(=O)N2C1 [PP0936]
NRAS/KRAS (ratio of KD value with respect to NRAS to KD value with respect to KRAS) ([1]; KD ratio, SPR): B (a compound having 3 or more and less than 10 is denoted as B) | HRAS/KRAS (ratio of KD value with respect to HRAS to KD value with respect to KRAS) ([2]; KD ratio, SPR): B (a compound having 3 or more and less than 10 is denoted as B)

CCC[C@H]1C(=O)N[C@@H]([C@@H](C)CC)C(=O)N(C)CC(=O)N(C)[C@H]2CCCCN(C2=O)[C@@H](Cc2ccc(C(F)(F)F)cc2)C(=O)N(C)CC(=O)N[C@@H](CCc2cc(F)c(C(F)(F)F)c(F)c2)C(=O)N2C[C@H](OCC)C[C@H]2C(=O)NC2(CCC2)C(=O)N(C)[C@@H](C2CCCC2)C(=O)N(C)[C@H](C(=O)N2CCOCC2)CC(=O)N1C [PP0709]
NRAS/KRAS (ratio of KD value with respect to GDP-bound NRAS wild-type protein to KD value with respect to KRAS) ([1]; SPR): C (A compound having a KD ratio of 0.1 or more and less than 3 is denoted as C) | HRAS/KRAS (ratio of KD value with respect to GDP-bound HRAS wild-type protein to KD value with respect to KRAS) ([2]; SPR): B (a compound having 3 or more and less than 10 is denoted as B)

CCCN1C(=O)[C@@H]2CCN2C(=O)[C@H](C)N(C)C(=O)[C@H]([C@@H](C)CC)NC(=O)[C@H](CC(C)C)N(C)C(=O)C[C@@H](C(=O)N2CCOCC2)N(C)C(=O)[C@H](C2CCCC2)N(C)C(=O)C2(CCCC2)NC(=O)[C@@H]2C[C@@H](O)CN2C(=O)[C@H](CCc2ccc(C(F)(F)F)c(Cl)c2)NC(=O)CN(C)C(=O)[C@@H]1Cc1ccc(C(F)(F)F)cc1 [PP0239]
NRAS/KRAS (ratio of KD for GDP-bound NRAS wild-type to KD for KRAS) ([1]; SPR): C (A compound having a KD ratio of 0.1 or more and less than 3 is denoted as C) | HRAS/KRAS (ratio of KD for GDP-bound HRAS wild-type to KD for KRAS) ([2]; SPR): B (a compound having 3 or more and less than 10 is denoted as B)

CCO[C@@H]1C[C@H]2C(=O)NC3(CCC3)C(=O)N(C)[C@@H](C3CCCC3)C(=O)N(C)[C@H](C(=O)N3CCOCC3)CC(=O)N(C)[C@@H](Cc3cccs3)C(=O)N[C@@H]([C@@H](C)CC)C(=O)N(C)CC(=O)N(C)[C@H]3CCCCCN(C3=O)[C@@H](Cc3ccc(F)cc3)C(=O)N(C)CC(=O)N[C@@H](CCc3cc(F)c(C(F)(F)F)c(F)c3)C(=O)N2C1 [PP1183]
NRAS/KRAS (ratio of KD value with respect to NRAS to KD value with respect to KRAS) ([1]; KD ratio, SPR): B (a compound having 3 or more and less than 10 is denoted as B) | HRAS/KRAS (ratio of KD value with respect to HRAS to KD value with respect to KRAS) ([2]; KD ratio, SPR): B (a compound having 3 or more and less than 10 is denoted as B)

CCCOC[C@H]1C(=O)N[C@@H]([C@@H](C)CC)C(=O)N(C)CC(=O)N(C)[C@H]2C/C=C\CCN(C2=O)[C@@H](CC2CCC(F)(F)CC2)C(=O)N(C)CC(=O)N[C@@H](CCc2ccc(C(F)(F)F)c(OC)c2)C(=O)N2C[C@H](OCC)C[C@H]2C(=O)N(C)C2(CCC2)C(=O)N(C)[C@@H](C2CCCC2)C(=O)N(C)[C@H](C(=O)N(C)C)CC(=O)N1C [PP2350]
NRAS/KRAS (ratio of KD value with respect to NRAS to KD value with respect to KRAS) ([1]; SPR): A (a compound having 10 or more and less than 20 is denoted as A) | HRAS/KRAS (ratio of KD value with respect to HRAS to KD value with respect to KRAS) ([2]; SPR): A (a compound having 10 or more and less than 20 is denoted as A)

CCO[C@@H]1C[C@H]2C(=O)NC3(CC(C)(C)C3)C(=O)N(C)[C@@H](C(CC)CC)C(=O)N(C)[C@H](C(=O)N(C)C)CC(=O)N(C)[C@@H](C(C)C)C(=O)N[C@@H]([C@@H](C)CC)C(=O)N(C)CC(=O)N(C)[C@H]3C/C=C\CCN(C3=O)[C@@H](Cc3ccc(C(F)(F)F)cc3)C(=O)N(C)CC(=O)N[C@@H](CCc3ccc(C(F)(F)F)c(Cl)c3)C(=O)N2C1 [PP2140]
NRAS/KRAS (ratio of KD value with respect to NRAS to KD value with respect to KRAS) ([1]; SPR): AA (a compound having 20 or more is denoted as AA) | HRAS/KRAS (ratio of KD value with respect to HRAS to KD value with respect to KRAS) ([2]; SPR): A (a compound having 10 or more and less than 20 is denoted as A)

CCO[C@@H]1C[C@H]2C(=O)NC3(CCC3)C(=O)N(C)[C@@H](C(CC)CC)C(=O)N(C)[C@H](C(=O)N3CCCCC3)CC(=O)N(C)[C@H]3CCC/C=C/c4ccc(cc4)C[C@@H](C(=O)N(C)CC(=O)N[C@@H](CCc4cc(F)c(C(F)(F)F)c(F)c4)C(=O)N2C1)N1CC/C=C\C[C@@H](C1=O)N(C)C(=O)CN(C1CC1)C(=O)[C@H]([C@@H](C)CC)NC3=O [PP2956]
NRAS/KRAS (ratio of KD value with respect to GDP-bound NRAS wild-type protein to KD value with respect to KRAS) ([1]; class symbols): AA (a compound having 20 or more is denoted as AA) | HRAS/KRAS (ratio of KD value with respect to GDP-bound HRAS wild-type protein to KD value with respect to KRAS) ([2]; class symbols): A (a compound having 10 or more and less than 20 is denoted as A)

CC[C@H](C)[C@@H]1NC(=O)[C@H](CC(C)C)N(C)C(=O)C[C@@H](C(=O)N2CCOCC2)N(C)C(=O)[C@H](C2CCCC2)N(C)C(=O)C2(CCCC2)NC(=O)[C@@H]2CCCN2C(=O)[C@H](CCc2ccc(C(F)(F)F)c(Cl)c2)NC(=O)CN(CC)C(=O)[C@H](Cc2ccc(C)cc2)N(CC)C(=O)CN(CC)C(=O)CN(C)C1=O [PP0030] ([NMeL]I[Sar][NEtG][NEtPhe(4-Me)][NEtG][hPhe(3-Cl-4-CF3)]P[Ac5c][NMeGly(cPent)][NMeD]-Morpholide; lactam N-11)
NRAS/KRAS (ratio of KD for GDP-bound NRAS wild-type to KD for KRAS) ([1]; SPR): C (A compound having a KD ratio of 0.1 or more and less than 3 is denoted as C) | HRAS/KRAS (ratio of KD for GDP-bound HRAS wild-type to KD for KRAS) ([2]; SPR): C (A compound having a KD ratio of 0.1 or more and less than 3 is denoted as C)
